# Assay results: patent publication US6355799B1, “Substituted benzene compounds, process for their preparation, and herbicidal and defoliant compositions containing them” (ISK Americas Incorporated, priority 1997, dated 2002)
# Tests used:
# Type in all cases: in vivo
# [1] = test system: redroot pigweed (Amaranthus retroflexus, AMARE); assay: Pre-emerge test, greenhouse herbicide activity screening; conditions: pre-emerge; for phytotoxicity rating AMARE: 14 days after application, rating scale 0-100; for Pre-emerge Herbicidal Activity AMARE: phytotoxicity rating 0-100 at 14 days after application
# Summary of the method: (§1)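 Herbicidal damage is scored 0 (none) to 100 (complete plant death) two weeks after a simulated field spray. Rates span 15–1000 g ai/ha, delivered in acetone at 187 l/ha. For post-emergence treatments, plants have 2–3 leaves and the spray carries 0.25% v/v non-ionic surfactant.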
# [2] = test system: barnyardgrass (Echinochloa crus-galli, ECHCG); assay: as above; conditions: pre-emerge; for phytotoxicity rating ECHCG: 14 days after application, rating scale 0-100; for Pre-emerge Herbicidal Activity ECHCG: phytotoxicity rating 0-100 at 14 days after application
# Summary of the method: (§2)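 Rating: 0–100 visual injury, 14 DAA. Application: acetone, 187 l/ha, 15–1000 g ai/ha, flat-fan track sprayer with nozzle 40–45 cm above soil or canopy. Post-emerge runs used 0.25% v/v surfactant on 2–3 leaf plants.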
# [3] = test system: common ragweed (Ambrosia artemisizfolia L., AMBEL); assay: as above; conditions: pre-emerge, 14 days after application, rating scale 0-100
# Summary of the method: as §2
# [4] = test system: green foxtail (Setaria viridis, SETVI); assay: as above; conditions: pre-emerge; for phytotoxicity rating SETVI: 14 days after application, rating scale 0-100; for Pre-emerge Herbicidal Activity SETVI: phytotoxicity rating 0-100 at 14 days after application
# Summary of the method: as §2
# [5] = test system: ivyleaf morningglory (Ipomoea hederacea, IPOHE); assay: as above; conditions: pre-emerge; for phytotoxicity rating IPOHE: 14 days after application, rating scale 0-100; for Pre-emerge Herbicidal Activity IPOHE: phytotoxicity rating 0-100 at 14 days after application
# Summary of the method: as §2
# [6] = test system: johnsongrass (Sorghum halepense, SORHA); assay: as above; conditions: pre-emerge; for phytotoxicity rating SORHA: 14 days after application, rating scale 0-100; for Pre-emerge Herbicidal Activity SORHA: phytotoxicity rating 0-100 at 14 days after application
# Summary of the method: as §2
# [7] = test system: lambsquarters (Chenopodium album, CHEAL); assay: as above; conditions: pre-emerge; for phytotoxicity rating CHEAL: 14 days after application, rating scale 0-100; for Pre-emerge Herbicidal Activity CHEAL: phytotoxicity rating 0-100 at 14 days after application
# Summary of the method: as §2
# [8] = test system: large crabgrass (Digitaria sanguinalis, DIGSA); assay: as above; conditions: pre-emerge; for phytotoxicity rating DIGSA: 14 days after application, rating scale 0-100; for Pre-emerge Herbicidal Activity DIGSA: phytotoxicity rating 0-100 at 14 days after application
# Summary of the method: as §2
# [9] = test system: sicklepod (Cassia obtusifolia, CASOB); assay: as above; conditions: pre-emerge; for phytotoxicity rating CASOB: 14 days after application, rating scale 0-100; for Pre-emerge Herbicidal Activity CASOB: phytotoxicity rating 0-100 at 14 days after application
# Summary of the method: as §2
# [10] = test system: velvetleaf (Abutilon theophrasti, ABUTH); assay: as above; conditions: pre-emerge; for phytotoxicity rating ABUTH: 14 days after application, rating scale 0-100; for Pre-emerge Herbicidal Activity ABUTH: phytotoxicity rating 0-100 at 14 days after application
# Summary of the method: as §2
# [11] = test system: field corn (Zea mays L., var. Dekalb 535, CORN); assay: Pre-emerge test, crop safety; conditions: pre-emerge; for phytotoxicity rating CORN: 14 days after application, rating scale 0-100; for Pre-emerge Herbicidal Activity CORN: crop damage, phytotoxicity rating 0-100 at 14 days after application
# Summary of the method: as §2
# [12] = test system: upland rice (Oryza sp., var. Tebonnet, RICE); assay: Pre-emerge test, crop safety; conditions: pre-emerge; for phytotoxicity rating RICE: 14 days after application, rating scale 0-100; for Pre-emerge Herbicidal Activity RICE: crop damage, phytotoxicity rating 0-100 at 14 days after application
# Summary of the method: as §2
# [13] = test system: barnyardgrass (Echinochloa crus-galli, ECHCG); assay: Post-emerge test, greenhouse herbicide activity screening; conditions: post-emerge, phytotoxicity rating 0-100 at 14 days after application
# Summary of the method: as §1
# [14] = test system: common ragweed (Ambrosia artemisizfolia L., AMBEL); assay: as above; conditions: post-emerge, phytotoxicity rating 0-100 at 14 days after application
# Summary of the method: as §1
# [15] = test system: green foxtail (Setaria viridis, SETVI); assay: as above; conditions: post-emerge, phytotoxicity rating 0-100 at 14 days after application
# Summary of the method: as §1
# [16] = test system: ivyleaf morningglory (Ipomoea hederacea, IPOHE); assay: as above; conditions: post-emerge, phytotoxicity rating 0-100 at 14 days after application
# Summary of the method: as §1
# [17] = test system: johnsongrass (Sorghum halepense, SORHA); assay: as above; conditions: post-emerge, phytotoxicity rating 0-100 at 14 days after application
# Summary of the method: as §1
# [18] = test system: lambsquarters (Chenopodium album, CHEAL); assay: as above; conditions: post-emerge, phytotoxicity rating 0-100 at 14 days after application
# Summary of the method: as §1
# [19] = test system: large crabgrass (Digitaria sanguinalis, DIGSA); assay: as above; conditions: post-emerge, phytotoxicity rating 0-100 at 14 days after application
# Summary of the method: as §1
# [20] = test system: redroot pigweed (Amaranthus retroflexus, AMARE); assay: as above; conditions: post-emerge, phytotoxicity rating 0-100 at 14 days after application
# Summary of the method: as §1
# [21] = test system: sicklepod (Cassia obtusifolia, CASOB); assay: as above; conditions: post-emerge, phytotoxicity rating 0-100 at 14 days after application
# Summary of the method: as §1
# [22] = test system: velvetleaf (Abutilon theophrasti, ABUTH); assay: as above; conditions: post-emerge, phytotoxicity rating 0-100 at 14 days after application
# Summary of the method: as §1
# [23] = test system: field corn (Zea mays L., var. Dekalb 535, CORN); assay: Post-emerge test, crop safety; conditions: post-emerge, crop damage rating 0-100 at 14 days after application
# Summary of the method: (§3)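 Plants grown in 10 cm pots of sandy loam mix received acetone-dissolved compounds through a moving flat-fan nozzle. Doses ranged from 15 to 1000 g ai/ha. Pre-emerge pots were seeded one day earlier, post-emerge pots 8–21 days earlier. Fourteen days on, each pot was graded 0–100 for damage.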
# [24] = test system: upland rice (Oryza sp., var. Tebonnet, RICE); assay: Post-emerge test, crop safety; conditions: post-emerge, crop damage rating 0-100 at 14 days after application
# Summary of the method: as §3
smiles,measurement,setting,value
CCOC(=O)C(Cl)Cc1c(OCC)c(Cl)cc(F)c1-n1c(=O)cc(C(F)(F)F)n(C)c1=O (stereo not shown) [14-64],phytotoxicity rating AMARE,[1]; 63 g ai/ha,100
same,phytotoxicity rating AMARE,[1]; 250 g ai/ha,100
same,phytotoxicity rating ECHCG,[2]; 63 g ai/ha,0
same,phytotoxicity rating ECHCG,[2]; 250 g ai/ha,95
same,phytotoxicity rating AMBEL,[3]; 63 g ai/ha,20
same,phytotoxicity rating AMBEL,[3]; 250 g ai/ha,60
same,phytotoxicity rating SETVI,[4]; 63 g ai/ha,0
same,phytotoxicity rating SETVI,[4]; 250 g ai/ha,100
same,phytotoxicity rating IPOHE,[5]; 63 g ai/ha,0
same,phytotoxicity rating IPOHE,[5]; 250 g ai/ha,0
same,phytotoxicity rating SORHA,[6]; 63 g ai/ha,0
same,phytotoxicity rating SORHA,[6]; 250 g ai/ha,20
same,phytotoxicity rating CHEAL,[7]; 63 g ai/ha,60
same,phytotoxicity rating CHEAL,[7]; 250 g ai/ha,100
same,phytotoxicity rating DIGSA,[8]; 63 g ai/ha,50
same,phytotoxicity rating DIGSA,[8]; 250 g ai/ha,100
same,phytotoxicity rating CASOB,[9]; 63 g ai/ha,0
same,phytotoxicity rating CASOB,[9]; 250 g ai/ha,0
same,phytotoxicity rating ABUTH,[10]; 63 g ai/ha,90
same,phytotoxicity rating ABUTH,[10]; 250 g ai/ha,100
same,phytotoxicity rating CORN,[11]; 63 g ai/ha,0
same,phytotoxicity rating CORN,[11]; 250 g ai/ha,0
same,phytotoxicity rating RICE,[12]; 63 g ai/ha,0
same,phytotoxicity rating RICE,[12]; 250 g ai/ha,10
"COc1c(Cl)cc(F)c(-n2ncc(C(F)(F)F)cc2=O)c1NC(=O)c1ccc2ccccc2c1 [Compound 11-6, 2-(4-chloro-6-fluoro-3-methoxy-2-naphthoylamidophenyl)-5-trifluoromethylpyridazin-3-one]",Pre-emerge Herbicidal Activity AMARE,[1]; rate 63 g ai/ha,100
same,Pre-emerge Herbicidal Activity AMARE,[1]; rate 250 g ai/ha,100
same,Pre-emerge Herbicidal Activity ECHCG,[2]; rate 63 g ai/ha,90
same,Pre-emerge Herbicidal Activity ECHCG,[2]; rate 250 g ai/ha,100
same,Pre-emerge Herbicidal Activity SETVI,[4]; rate 63 g ai/ha,100
same,Pre-emerge Herbicidal Activity SETVI,[4]; rate 250 g ai/ha,100
same,Pre-emerge Herbicidal Activity IPOHE,[5]; rate 63 g ai/ha,0
same,Pre-emerge Herbicidal Activity IPOHE,[5]; rate 250 g ai/ha,80
same,Pre-emerge Herbicidal Activity SORHA,[6]; rate 63 g ai/ha,0
same,Pre-emerge Herbicidal Activity SORHA,[6]; rate 250 g ai/ha,40
same,Pre-emerge Herbicidal Activity CHEAL,[7]; rate 63 g ai/ha,100
same,Pre-emerge Herbicidal Activity CHEAL,[7]; rate 250 g ai/ha,100
same,Pre-emerge Herbicidal Activity DIGSA,[8]; rate 63 g ai/ha,100
same,Pre-emerge Herbicidal Activity DIGSA,[8]; rate 250 g ai/ha,100
same,Pre-emerge Herbicidal Activity CASOB,[9]; rate 63 g ai/ha,20
same,Pre-emerge Herbicidal Activity CASOB,[9]; rate 250 g ai/ha,99
same,Pre-emerge Herbicidal Activity ABUTH,[10]; rate 63 g ai/ha,95
same,Pre-emerge Herbicidal Activity ABUTH,[10]; rate 250 g ai/ha,100
same,Pre-emerge Herbicidal Activity CORN,[11]; rate 63 g ai/ha,0
same,Pre-emerge Herbicidal Activity CORN,[11]; rate 250 g ai/ha,20
same,Pre-emerge Herbicidal Activity RICE,[12]; rate 63 g ai/ha,0
same,Pre-emerge Herbicidal Activity RICE,[12]; rate 250 g ai/ha,50
same,Post-emerge Herbicidal Activity ECHCG,[13]; 63 g ai/ha,50
same,Post-emerge Herbicidal Activity ECHCG,[13]; 250 g ai/ha,80
same,Post-emerge Herbicidal Activity AMBEL,[14]; 63 g ai/ha,100
same,Post-emerge Herbicidal Activity AMBEL,[14]; 250 g ai/ha,100
same,Post-emerge Herbicidal Activity SETVI,[15]; 63 g ai/ha,10
same,Post-emerge Herbicidal Activity SETVI,[15]; 250 g ai/ha,50
same,Post-emerge Herbicidal Activity IPOHE,[16]; 63 g ai/ha,70
same,Post-emerge Herbicidal Activity IPOHE,[16]; 250 g ai/ha,100
same,Post-emerge Herbicidal Activity SORHA,[17]; 63 g ai/ha,0
same,Post-emerge Herbicidal Activity SORHA,[17]; 250 g ai/ha,0
same,Post-emerge Herbicidal Activity CHEAL,[18]; 63 g ai/ha,80
same,Post-emerge Herbicidal Activity CHEAL,[18]; 250 g ai/ha,100
same,Post-emerge Herbicidal Activity DIGSA,[19]; 63 g ai/ha,0
same,Post-emerge Herbicidal Activity DIGSA,[19]; 250 g ai/ha,0
same,Post-emerge Herbicidal Activity AMARE,[20]; 63 g ai/ha,100
same,Post-emerge Herbicidal Activity AMARE,[20]; 250 g ai/ha,100
same,Post-emerge Herbicidal Activity CASOB,[21]; 63 g ai/ha,100
same,Post-emerge Herbicidal Activity CASOB,[21]; 250 g ai/ha,100
same,Post-emerge Herbicidal Activity ABUTH,[22]; 63 g ai/ha,100
same,Post-emerge Herbicidal Activity ABUTH,[22]; 250 g ai/ha,100
same,Post-emerge Herbicidal Activity CORN,[23]; 63 g ai/ha,0
same,Post-emerge Herbicidal Activity CORN,[23]; 250 g ai/ha,20
same,Post-emerge Herbicidal Activity RICE,[24]; 63 g ai/ha,20
same,Post-emerge Herbicidal Activity RICE,[24]; 250 g ai/ha,60
